Measured values reported in publication PMC9785280, “Synthesis, Antiproliferative Evaluation and QSAR Analysis of Novel Halogen- and Amidino-Substituted Benzothiazoles and Benzimidazoles” (International Journal of Molecular Sciences, 2022).

Assays:
[1] = tested on: HeLa (cervical adenocarcinoma) cells; experiment: MTT antiproliferative assay, HeLa; assay type: cell-based; conditions: Homo sapiens, 72 h, mean ± SD of three independent experiments
Experimental: (§1) The growth inhibition activity was assessed according to the slightly modified procedure performed at the National Cancer Institute, Developmental Therapeutics Program.
(§2) Examined compounds were dissolved in DMSO (1 × 10^−2 M). The experiments were carried out on seven human tumor cell lines and two normal cell lines. The following cell lines were used: HeLa (human cervical adenocarcinoma; purchased from ATCC), CaCo-2 (human colorectal adenocarcinoma), HuT78 (T-cell lymphoma), THP-1 (acute monocytic leukemia), SW620 (colorectal adenocarcinoma, metastatic), MDA-MB-231 (human breast adenocarcinoma), HL60 (promyelocytic leukemia cell line), foreskin fibroblast cells (BJ) and MDCK1 (Madine–Darby canine kidney fibroblast like cells). MDCK1 cells were used between 24 and 26 passages.
(§3) Adherent cells were cultured in the Dulbecco’s modified Eagle medium—DMEM (Gibco, EU) supplemented with 10 % heat-inactivated fetal bovine serum (FBS, Gibco, EU), 2 mM glutamine, and 100 U/0.1 mg penicillin/streptomycin. Cells on suspension were cultured in RPMI 1640 (Gibco, EU) medium supplemented with 10 % FBS (Gibco, EU), 2 mM glutamine, 1 mM sodium pyruvate, 10 mM HEPES. Cells were grown in humidified atmosphere under the conditions of 37 °C/5% of CO2 gas in the CO2 incubator (IGO 150 CELLlife^TM, JOUAN, Thermo Fisher Scientific, Waltham, MA, USA). A erythrosin B (Sigma-Aldrich, St. Louis, MO, USA) dye exclusion method was used to assess cell viability before plating.
(§4) Adherent cells (HeLa, CaCo-2, MCF-7 and MDCK-1) were plated in 96-well flat bottom plates (Greiner, Frickenhausen, Austria) at a concentration of 2 × 10^4 cells/mL. Suspension cells (THP-1 and HuT78) were plated in 96-well microtiter plates (Sarstead, Newton, USA) at a concentration of 1 × 10^5 cells/mL. Twenty-four hours later, cells were treated with test agents in […] 10-fold dilutions ([…] to 10^−4 M) and incubated for further 72 h. Working dilutions were freshly prepared on the day of testing. The solvent was also tested for eventual inhibitory activity by adjusting its concentration to be the same as in working concentrations. After 72 h of incubation, the cell growth rate was evaluated by performing the MTT assay, which detects dehydrogenase activity in viable cells. For this purpose, upon completion of the incubation period, growth medium was discarded and 50 μL of MTT was added to each well at a concentration of 5 mg/mL. After four hours of incubation at 37 °C, water insoluble MTT-formazan crystals were dissolved in 150 μL of dimethyl-sulfoxide (DMSO) for adherent cells, and in 10 % SDS with 0.01 M/L HCl for cells grown in suspension. The absorbance (OD, optical density) was measured on a microplate reader (iMark, BIO RAD, Hercules, CA, USA) at 595 nm.
(§5) Percent of life cells was calculated as follows: % = OD (sample)–OD (background)/OD (control)–OD (background) × 100.
(§6) Optical density (OD) of background for adherent cells is the OD of MTT solution and DMSO; OD (background) for suspension cells is OD of the culture medium with MTT and 10% SDS with 0.01 M/L HCl; OD (control) is the OD of the cells growth without tested compounds.
(§7) Calculation of GI50 value curves and QC analysis is performed by using the Excel tools and GraphPadPrism software (La Jolla, CA), v. 5.03. Briefly, individual concentration effect curves are generated by plotting the logarithm of the concentration of tested compounds(X) vs. corresponding percent inhibition values (Y) using least squares fit. The best fit GI50 values are calculated using Log (inhibitor) versus normalized response—Variable slope equation, where Y Ľ 100/(1 ţ 10 ((LogIC50 _ X) * HillSlope)). QC criteria parameters (Z0, S:B, R2, HillSlope) were checked for every GI50 curve.

[2] = tested on: MDCK1 (Madin–Darby canine kidney) cells; experiment: MTT antiproliferative assay, non-tumor MDCK1 cells; assay type: cell-based; conditions: Canis lupus familiaris, MDCK1, 72 h, mean ± SD of three independent experiments, normal cells
Experimental: as §1, §2, §3, §4, §5, §6, §7

[3] = tested on: HuT78 (T-cell lymphoma) cells; experiment: MTT antiproliferative assay, HuT78; assay type: cell-based, human; conditions: for IC50: Homo sapiens, HuT78, 72 h, 72 h, MTT, mean ± SD of three independent experiments; for SI (BJ) HuT78: SI = IC50 BJ / IC50 HuT78; for SI (MDCK) HuT78: SI = IC50 MDCK1 / IC50 HuT78
Experimental: as §1, §2, §3, §4, §5, §6, §7

human fibroblasts (BJ) = experiment: MTT antiproliferative assay, normal BJ fibroblasts; assay type: cell-based; conditions: Homo sapiens, Fibroblast, 72 h, MTT, mean ± SD of three independent experiments; normal cells
Experimental: as §1, §2, §3, §4, §5, §6, §7

[4] = tested on: CaCo-2 (colon adenocarcinoma) cells; experiment: MTT antiproliferative assay, CaCo-2; assay type: cell-based, human; conditions: for IC50: Homo sapiens, Caco-2, 72 h, MTT, mean ± SD of three independent experiments
Experimental: as §1, §2, §3, §4, §5, §6
as §7, with “The best fit GI50 values are calculated using Log (inhibitor) versus normalized response—Variable slope equation, where Y Ľ 100/(1 ţ 10 ((LogIC50 _ X) * HillSlope)).” left out

Row | SMILES | IC50 [1] [µM] | IC50 [2] [µM] | antiproliferative effect on HuT78 cells (in words) [3] | IC50 [3] [µM] | IC50 (human fibroblasts (BJ)) [µM] | melting point [°C] | IC50 [4] [µM] | SI (BJ) HuT78 [3] | SI (MDCK) HuT78 [3] | SI (MDCK) CaCo-2 ([4]; SI = IC50 MDCK1 / IC50 CaCo-2)
1 | O=c1[nH]cc(F)c(=O)[nH]1 [5-FU, 5-Fluorouracil, reference compound] | 8.2 ± 1.9 | 55 ± 8.7 | did not exhibit antiproliferative effect | > 100 | 74 ± 3.1 | – | – | – | – | –
2 | O=C(COc1ccc(-c2nc3ccc(Cl)cc3s2)cc1)c1ccccc1 [15a, 6-Chloro-2-(4-(2-oxo-2-phenylethoxy)phenyl)benzothiazole] | > 100 | > 100 | – | > 100 | > 100 | 192 to 195 | > 100 | – | – | –
3 | O=C(COc1ccc(-c2nc3ccc(Cl)cc3s2)cc1F)c1ccccc1 [15b, 6-Chloro-2-(3-fluoro-4-(2-oxo-2-phenylethoxy)phenyl)benzothiazole] | > 100 | > 100 | – | > 100 | > 100 | 192 to 195 | > 100 | – | – | –
4 | COc1cc(-c2nc3ccc(Cl)cc3s2)ccc1OCC(=O)c1ccccc1 [15c, 6-Chloro-2-(3-methoxy-4-(2-oxo-2-phenylethoxy)phenyl)benzothiazole] | > 100 | 79.3 ± 14.4 | – | > 100 | > 100 | 163 to 166 | > 100 | – | – | –
5 | O=C(COc1ccc(-c2nc3ccc(F)cc3s2)cc1)c1ccccc1 [16a, 6-Fluoro-2-(4-(2-oxo-2-phenylethoxy)phenyl)benzothiazole] | > 100 | 87.3 ± 6.9 | – | > 100 | > 100 | 164 to 167 | > 100 | – | – | –
6 | Clc1ccc2nc(-c3ccc(OCc4ccccn4)cc3)sc2c1 [18a] | 42.4 ± 7.5 | 17.6 ± 5.7 | – | 13.2 ± 1.2 | > 100 | – | > 100 | 3.2 | – | –
7 | O=C(COc1ccc(-c2nc3ccc(C4=NCCCN4)cc3s2)cc1)c1ccccc1 [38a] | 19.7 ± 3.1 | 27.1 ± 3.4 | – | 16.2 ± 5.5 | 22.6 ± 4.6 | – | 25.4 ± 3.5 | 1.39 | 1.67 | –
8 | c1cc(-c2nc3ccc(C4=NCCCN4)cc3s2)ccc1OCc1c[nH]nn1 [40a] | > 100 | 59.4 ± 18.8 | – | > 100 | > 100 | – | > 100 | – | – | –
9 | Fc1cc(-c2nc3ccc(C4=NCCCN4)cc3s2)ccc1OCc1c[nH]nn1 [40b] | > 100 | > 100 | – | 37.3 ± 12.8 | > 100 | – | > 100 | 2.68 | 2.68 | –
10 | COc1cc(-c2nc3ccc(C4=NCCCN4)cc3s2)ccc1OCc1c[nH]nn1 [40c] | > 100 | > 100 | – | > 100 | > 100 | – | > 100 | – | – | –
11 | c1ccc(Cn2cc(COc3ccc(-c4nc5ccc(C6=NCCCN6)cc5s4)cc3)nn2)cc1 [41a] | 25.8 ± 0.8 | 58.2 ± 17.3 | – | 4.1 ± 3.6 | 27.3 ± 6 | – | 29.2 ± 4.2 | 6.65 | 14.19 | 1.99
12 | COc1cc(-c2nc3ccc(C4=NCCCN4)cc3s2)ccc1OCc1cn(Cc2ccccc2)nn1 [41c] | > 100 | > 100 | – | > 100 | > 100 | – | > 100 | – | – | –
13 | Fc1cc(-c2nc3ccc(C4=NCCN4)cc3[nH]2)ccc1OCc1ccccn1 [43b] | > 100 | > 100 | – | 43.3 ± 4.4 | > 100 | – | > 100 | 2.3 | 2.3 | –
14 | COc1cc(-c2nc3ccc(C4=NCCN4)cc3[nH]2)ccc1OCc1ccccn1 [43c] | > 100 | 63.4 ± 8.9 | – | 17.7 ± 6.1 | 30.9 ± 8.7 | – | > 100 | 1.75 | 3.58 | –
15 | c1cc(-c2nc3ccc(C4=NCCN4)cc3[nH]2)ccc1OCc1c[nH]nn1 [44a] | > 100 | > 100 | – | 89.2 ± 20.6 | 73.3 ± 3.2 | – | > 100 | – | 1.2 | –
16 | Fc1cc(-c2nc3ccc(C4=NCCN4)cc3[nH]2)ccc1OCc1c[nH]nn1 [44b] | > 100 | > 100 | – | 65.6 ± 17.3 | 45.1 ± 20.9 | – | > 100 | – | 1.52 | –
17 | COc1cc(-c2nc3ccc(C4=NCCN4)cc3[nH]2)ccc1OCc1c[nH]nn1 [44c] | > 100 | > 100 | – | > 100 | > 100 | – | > 100 | – | – | –
18 | c1cc(-c2nc3ccc(C4=NCCN4)cc3[nH]2)ccc1OCc1cn(CCN2CCOCC2)nn1 [46a] | > 100 | > 100 | – | 63 ± 15.1 | > 100 | – | > 100 | 1.59 | 1.59 | –
19 | O=C(COc1ccc(-c2nc3ccc(C4=NCCN4)cc3[nH]2)cc1)N1CCOCC1 [47a] | > 100 | > 100 | – | > 100 | > 100 | – | > 100 | – | – | –
20 | O=C(COc1ccc(-c2nc3ccc(C4=NCCN4)cc3[nH]2)cc1F)N1CCOCC1 [47b] | > 100 | > 100 | – | > 100 | > 100 | – | > 100 | – | – | –
21 | c1cc(-c2nc3ccc(C4=NCCN4)cc3[nH]2)ccc1OCCN1CCOCC1 [48a] | > 100 | > 100 | – | > 100 | > 100 | – | > 100 | – | – | –
22 | Fc1cc(-c2nc3ccc(C4=NCCN4)cc3[nH]2)ccc1OCCN1CCOCC1 [48b] | > 100 | > 100 | – | > 100 | > 100 | – | > 100 | – | – | –
23 | COc1cc(-c2nc3ccc(C4=NCCN4)cc3[nH]2)ccc1OCCN1CCOCC1 [48c] | > 100 | > 100 | – | 69.6 ± 25.9 | > 100 | – | > 100 | 1.44 | 1.44 | –
24 | CCN(CC)CCOc1ccc(-c2nc3ccc(C4=NCCN4)cc3[nH]2)cc1 [49a] | > 100 | > 100 | – | > 100 | 80.4 ± 9.9 | – | > 100 | – | – | –
25 | CCN(CC)CCOc1ccc(-c2nc3ccc(C4=NCCN4)cc3[nH]2)cc1F [49b] | > 100 | 82.9 ± 6.6 | – | > 100 | 64.8 ± 9.2 | – | > 100 | – | – | –
26 | CCN(CC)CCOc1ccc(-c2nc3ccc(C4=NCCN4)cc3[nH]2)cc1OC [49c] | > 100 | > 100 | – | > 100 | > 100 | – | > 100 | – | – | –
